Measured values as given in patent publication US9884839B2, “Inhibitors of 17Beta-hydroxysteroid dehydrogenases type 1 and type 2” (ElexoPharm GmbH, priority 2014, dated 2018).
Like-named read-outs stand apart in the source and are kept apart here.

Key:
rat 17β-HSD1 = target: T1, rat 17β-HSD1 (Rattus norvegicus, UniProt P51657); test: Inhibition of rat 17β-HSD1 (recombinant, HEK293 lysate); format: biochemical; conditions: Cmpd conc. 250 nM; read-out: % Inhibition r17β-HSD1
T1 construct: made in house; host or cells: HEK293 cells, transient transfection; 1,000 g supernatant of the cell lysate
T1 sequence (P51657 1-344): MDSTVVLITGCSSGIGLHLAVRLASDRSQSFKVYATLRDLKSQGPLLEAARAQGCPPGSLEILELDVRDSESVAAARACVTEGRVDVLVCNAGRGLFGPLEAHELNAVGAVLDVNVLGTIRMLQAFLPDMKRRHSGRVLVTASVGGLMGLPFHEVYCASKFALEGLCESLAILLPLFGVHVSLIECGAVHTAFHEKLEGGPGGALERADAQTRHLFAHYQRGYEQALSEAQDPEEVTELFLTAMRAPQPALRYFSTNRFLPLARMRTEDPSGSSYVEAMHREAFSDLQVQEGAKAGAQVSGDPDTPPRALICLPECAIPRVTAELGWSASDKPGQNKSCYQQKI

mouse 17β-HSD1 = target: T2, mouse 17β-HSD1 (Mus musculus, UniProt P51656); test: Inhibition of mouse 17β-HSD1 (recombinant, HEK293 lysate); format: biochemical; conditions: for IC50: recombinant mouse enzyme, E1 10 nM, NADPH, read-out: IC50 m17β-HSD1
T2 construct: made in house; host or cells: HEK293 cells, transient transfection; 1,000 g supernatant of the cell lysate
T2 sequence (P51656 1-344): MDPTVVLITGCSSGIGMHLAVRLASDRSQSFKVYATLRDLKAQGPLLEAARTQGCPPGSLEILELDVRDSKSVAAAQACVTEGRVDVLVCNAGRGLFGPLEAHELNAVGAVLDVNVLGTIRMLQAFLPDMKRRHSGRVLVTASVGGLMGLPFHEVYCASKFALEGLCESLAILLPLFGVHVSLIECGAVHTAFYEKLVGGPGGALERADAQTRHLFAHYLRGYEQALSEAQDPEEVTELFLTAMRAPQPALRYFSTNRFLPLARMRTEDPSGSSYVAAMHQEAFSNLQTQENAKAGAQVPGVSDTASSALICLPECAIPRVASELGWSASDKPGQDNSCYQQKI

in vitro = conditions: human, pooled human liver S9 fraction
human 17β-HSD1 = target: T3, human 17β-HSD1 (Homo sapiens, UniProt P14061); test: Inhibition of human 17β-HSD1 (conversion of [3H]-E1 to E2, HPLC radioflow detection); format: biochemical; conditions: for IC50: human placental cytosolic enzyme, E1 500 nM, NADH, Tables 1, 4-11, read-out: IC50 [nM] h17β-HSD1; for inhibition at 0.01 µM: read-out: % inhibition h17β-HSD1 @ 10 nM
T3 construct: For the partial purification of 17β-HSD1, the cytosolic fraction was precipitated with ammonium sulfate; from tissue; host or cells: human placenta, cytosolic fraction, ammonium sulfate precipitate
T3 sequence (P14061 1-328): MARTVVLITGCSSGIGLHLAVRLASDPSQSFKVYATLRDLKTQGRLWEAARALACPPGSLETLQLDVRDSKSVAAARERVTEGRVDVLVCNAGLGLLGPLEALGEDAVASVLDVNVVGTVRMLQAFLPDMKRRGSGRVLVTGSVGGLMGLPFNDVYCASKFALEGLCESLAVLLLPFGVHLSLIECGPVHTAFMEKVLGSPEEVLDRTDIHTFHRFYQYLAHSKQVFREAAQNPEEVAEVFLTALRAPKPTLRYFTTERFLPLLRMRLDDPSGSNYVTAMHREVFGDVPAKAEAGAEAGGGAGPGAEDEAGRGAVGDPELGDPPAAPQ

human 17β-HSD2 = target: T4, human 17β-HSD2 (Homo sapiens, UniProt P37059); test: Inhibition of human 17β-HSD2 (conversion of [3H]-E2 to E1); format: biochemical; conditions: for IC50: read-out: IC50 [nM] h17β-HSD2; for inhibition at 0.01 µM: read-out: % inhibition h17β-HSD2 @ 10 nM
T4 construct: 17β-HSD2 was obtained from the microsomal fraction; from tissue; host or cells: human placenta, microsomal fraction
T4 sequence (P37059 1-387): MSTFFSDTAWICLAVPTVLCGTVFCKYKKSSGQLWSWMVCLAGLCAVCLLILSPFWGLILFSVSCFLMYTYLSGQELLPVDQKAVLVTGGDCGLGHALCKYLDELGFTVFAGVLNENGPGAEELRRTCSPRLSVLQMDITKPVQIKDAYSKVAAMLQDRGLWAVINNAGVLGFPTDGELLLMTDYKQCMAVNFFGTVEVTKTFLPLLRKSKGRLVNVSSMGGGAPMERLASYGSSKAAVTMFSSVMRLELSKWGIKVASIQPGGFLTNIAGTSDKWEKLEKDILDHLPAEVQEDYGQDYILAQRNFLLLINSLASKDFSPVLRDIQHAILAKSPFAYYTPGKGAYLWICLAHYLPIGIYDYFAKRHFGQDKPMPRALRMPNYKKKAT

mouse 17β-HSD2 = target: T5, mouse 17β-HSD2 (Mus musculus, UniProt P51658); test: Inhibition of mouse 17β-HSD2 (liver microsomal fraction); format: biochemical; conditions: for inhibition at 1 µM: read-out: Inhibition @ 1 μM m17β-HSD2; for IC50: read-out: IC50 m17β-HSD2; for inhibition at 0.05 µM: read-out: % inhibition m17β-HSD2 @ 50 nM
T5 construct: The pellet fractions containing the microsomal 17β-HSD2 were used for the determination of E1 formation; from tissue; host or cells: mouse liver, microsomal fraction
T5 sequence (P51658 1-381): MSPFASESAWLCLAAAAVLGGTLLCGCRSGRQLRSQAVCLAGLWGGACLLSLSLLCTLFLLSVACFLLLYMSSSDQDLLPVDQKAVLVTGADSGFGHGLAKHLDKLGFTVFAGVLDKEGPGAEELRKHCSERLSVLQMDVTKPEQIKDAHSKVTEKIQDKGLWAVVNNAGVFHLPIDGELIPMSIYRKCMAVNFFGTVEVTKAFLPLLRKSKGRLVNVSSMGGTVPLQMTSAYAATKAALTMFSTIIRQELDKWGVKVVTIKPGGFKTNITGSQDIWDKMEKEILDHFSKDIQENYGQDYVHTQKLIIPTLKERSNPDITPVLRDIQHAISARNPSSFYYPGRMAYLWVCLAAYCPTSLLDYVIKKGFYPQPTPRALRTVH

[1] = human liver S9, 1 mg/mL; unit not given
[2] = read-out: Inhibition @ 1 μM m17β-HSD1

| inhibition at […] (rat 17β-HSD1) | inhibition at 1 µM (mouse 17β-HSD1; read-out: % inhibition m17β-HSD1 @ 1 μM) | inhibition at 1 µM (mouse 17β-HSD1; [2]) | half-life at 1 µM (in vitro) | IC50 (human 17β-HSD1) | IC50 (human 17β-HSD2) | inhibition at 1 µM (mouse 17β-HSD2) | CLint [1] | IC50 (mouse 17β-HSD2) | IC50 (mouse 17β-HSD1) | inhibition at 0.01 µM (human 17β-HSD1) | inhibition at 0.01 µM (human 17β-HSD2) | inhibition at 0.05 µM (mouse 17β-HSD2) | SMILES | IC50 (mouse 17β-HSD2; mouse liver microsomal fraction, E2 10 nM, NAD+) |
| --- | --- | --- | --- | --- | --- | --- | --- | --- | --- | --- | --- | --- | --- | --- |
| 51% | 30% | 30% |  |  |  |  |  |  |  |  |  |  | Nc1cccc(-c2ccc(C(=O)c3c(F)ccc(O)c3F)s2)c1 [Compound 1, [5-(3-Aminophenyl)thiophen-2-yl](2,6-difluoro-3-hydroxyphenyl)methanone] |  |
|  |  | 60% | 4.3 min | 1.2 nM | 10 nM | 75% | 160.7 |  |  |  |  |  | O=C(c1ccc(-c2cccc(Cl)c2)s1)c1c(F)ccc(O)c1F [Compound 11, [5-(3-Chloro-phenyl)-thiophen-2-yl]-(2,6-difluoro-3-hydroxy-phenyl)-methanone] |  |
|  |  | 38% | 2.9 min | 0.8 nM | 11 nM |  | 241.4 | 78 nM |  |  |  |  | Cc1cc(C(=O)c2c(F)ccc(O)c2F)sc1-c1ccc(O)c(Cl)c1 [Compound 21, [5-(3-Chloro-4-hydroxy-phenyl)-4-methyl-thiophen-2-yl]-(2,6-difluoro-3-hydroxy-phenyl)-methanone] |  |
|  |  | 23% | 10.7 min | 3.3 nM | 29 nM | 40% | 64.5 |  |  |  |  |  | N#Cc1cc(-c2ccc(C(=O)c3c(F)ccc(O)c3F)s2)ccc1O [Compound 25, 5-[5-(2,6-Difluoro-3-hydroxy-benzoyl)-thiophen-2-yl]-2-hydroxy-benzonitrile] |  |
| 39% |  | 32% |  | 2.1 nM | 9 nM | 84% |  |  |  |  |  |  | COc1c(Cl)cc(-c2ccc(C(=O)c3c(F)ccc(O)c3F)s2)cc1Cn1ccnn1 [Compound 31, [5-(3-Chloro-4-methoxy-5-[1,2,3]triazol-1-ylmethyl-phenyl)-thiophen-2-yl]-(2,6-difluoro-3-hydroxy-phenyl)-methanone] |  |
|  |  | 33% | 11.3 min | 1.1 nM | 3.1 nM | 89% | 61.5 |  |  |  |  |  | O=C(c1ccc(-c2ccc(O)c(Cl)c2)s1)c1cc(F)c(F)c(O)c1F [Compound 41, (5-(3-Chloro-4-hydroxyphenyl)thiophen-2-yl)(2,4,5-trifluoro-3-hydroxyphenyl)methanone] |  |
|  |  |  | 15 min | 0.6 nM | 2.6 nM |  |  | 89 nM | 1730 nM |  |  |  | COc1c(Cl)cc(-c2ccc(C(=O)c3cc(F)c(F)c(O)c3F)s2)cc1Cl [Compound 45, (5-(3,5-Dichloro-4-methoxyphenyl)thiophen-2-yl)(2,4,5-trifluoro-3-hydroxyphenyl)methanone] |  |
|  |  | 12.1% | 24.9 min | 21 nM |  |  | 27.9 | 155 nM |  |  |  |  | Cn1cnc(S(=O)(=O)Nc2cccc(-c3ccc(C(=O)c4cc(F)c(F)c(O)c4F)s3)c2)c1 [Compound 48, 1-Methyl-N-(3-(5-(2,4,5-trifluoro-3-hydroxybenzoyl)thiophen-2-yl)phenyl)-1H-imidazole-4-sulfonamide] |  |
|  |  |  | 38 min | 0.9 nM | 1.3 nM |  | 18.2 | 100 nM | 650 nM |  |  |  | Cc1cc(-c2ccc(C(=O)c3cc(F)c(F)c(O)c3F)s2)cc(C)c1O [Compound 50, (5-(4-Hydroxy-3,5-dimethylphenyl)thiophen-2-yl)(2,4,5-trifluoro-3-hydroxyphenyl)methanone] |  |
|  |  |  | 20.8 min |  |  |  | 33.3 |  |  | 1.1% | 61% | 40% | Cc1c(N)cccc1-c1ccc(C(=O)c2cc(F)c(F)c(O)c2F)s1 [Compound 58, (5-(3-Amino-2-methylphenyl)thiophen-2-yl)(2,4,5-trifluoro-3-hydroxyphenyl)methanone] |  |
|  |  |  | 48.9 min |  |  |  | 14.2 |  |  | 93% | 100% | 46% | O=C(c1ccc(-c2cccc3[nH]ccc23)s1)c1cc(F)c(F)c(O)c1F [Compound 62, (5-(1H-Indol-4-yl)thiophen-2-yl)(2,4,5-trifluoro-3-hydroxyphenyl)methanone] |  |
|  |  |  | 25 min |  |  |  | 27.7 |  |  | 53% | 77% | 38% | CS(=O)(=O)Nc1cccc(-c2ccc(C(=O)c3cc(F)c(F)c(O)c3F)s2)c1 [Compound 63, N-(3-(5-(2,4,5-trifluoro-3-hydroxybenzoyl)thiophen-2-yl)phenyl)methanesulfonamide] |  |
|  |  |  | 27.4 min |  |  |  | 25.3 |  |  | 66% | 96% | 42% | O=C(c1ccc(-c2ccc(O)cc2)s1)c1cc(F)c(F)c(O)c1F [Compound 68, (5-(4-Hydroxyphenyl)thiophen-2-yl)(2,4,5-trifluoro-3-hydroxyphenyl)methanone] |  |
|  |  |  | 22 min |  |  |  | 31.6 |  |  | 31% | 64% | 70% | Cc1cc(-c2ccc(C(=O)c3cccc(O)c3Cl)s2)cc(C)c1O [Compound 79, (2-Chloro-3-hydroxyphenyl)(5-(4-hydroxy-3,5-dimethylphenyl)thiophen-2-yl)methanone] |  |

| SMILES | inhibition at […] (rat 17β-HSD1) | inhibition at 1 µM (mouse 17β-HSD1; read-out: % inhibition m17β-HSD1 @ 1 μM) | inhibition at 1 µM (mouse 17β-HSD1; [2]) | half-life at 1 µM (in vitro) | IC50 (human 17β-HSD1) | IC50 (human 17β-HSD2) | inhibition at 1 µM (mouse 17β-HSD2) | CLint [1] | IC50 (mouse 17β-HSD2) | IC50 (mouse 17β-HSD1) | inhibition at 0.01 µM (human 17β-HSD1) | inhibition at 0.01 µM (human 17β-HSD2) | inhibition at 0.05 µM (mouse 17β-HSD2) | IC50 (mouse 17β-HSD2; mouse liver microsomal fraction, E2 10 nM, NAD+) |
| --- | --- | --- | --- | --- | --- | --- | --- | --- | --- | --- | --- | --- | --- | --- |
| COc1ccc(-c2ccc(C(=O)c3c(F)ccc(O)c3F)s2)cc1Cl [Compound 12, [5-(3-Chloro-4-methoxy-phenyl)-thiophen-2-yl]-(2,6-difluoro-3-hydroxy-phenyl)-methanone] |  |  | 40% | 4.6 min | 1.3 nM | 11 nM | 64% | 149.6 |  |  |  |  |  |  |
| COc1c(Cl)cc(-c2ccc(C(=O)c3c(F)ccc(O)c3F)s2)cc1Cl [Compound 15, [5-(3,5-Dichloro-4-methoxy-phenyl)-thiophen-2-yl]-(2,6-difluoro-3-hydroxy-phen-yl)-methanone] |  |  | 43% | 18.1 min | 0.6 nM | 41 nM |  | 38.3 |  |  |  |  |  | 550 nM |
